Entries after “also recorded” stand apart in the source; their conditions may differ.
How the values were obtained:
[1] = Dose escalation (phase 1a): dose-limiting toxicity, MTD, RP2D; type: in vivo; details: once-daily oral doses of 30 to 300 mg/day
Experimental: Phase 1 of the study comprised a dose-escalation phase (1a) to identify the MTD using a rolling 6 patient dose-escalation design with 7 dose levels. Two doses of palazestrant (60 mg/day and 120 mg/day) were selected for the dose-expansion phase (1b) to further characterize the safety, PK, and preliminary antitumor activity of treatment and to establish the RP2D. Phase 2 further explored the safety and antitumor activity of palazestrant at the RP2D (120 mg/day) in patients with measurable disease (primary cohort), nonmeasurable evaluable disease (exploratory cohort), and central nervous system (CNS) metastases (exploratory cohort). […]
All DLT analyses (phase 1a) were performed in patients enrolled in the study during cycle 1 and who either received 75% of the planned palazestrant doses or experienced a DLT during cycle 1. […] All safety analyses were performed and PFS assessed in patients who received at least 1 dose of palazestrant. Clinical response (CR or PR) was assessed in patients who received at least 1 cycle of palazestrant, had measurable disease at baseline, and had at least 1 postbaseline tumor assessment. CBR was assessed in patients who received at least 1 cycle of palazestrant, had at least 1 postbaseline tumor assessment, and started their first dose at least 24 weeks before data cutoff. […]

[2] = tested on: ESR1 wild-type and mutated human breast cancers; details: cited from earlier work

CCCN1CC(Oc2ccc([C@@H]3c4[nH]c5ccccc5c4C[C@@H](C)N3CC(C)(C)F)cc2)C1 [palazestrant, Palazestrant]
maximum tolerated dose (MTD) [1]: not reached; also recorded: no MTD was identified
tumor shrinkage compared with fulvestrant and tamoxifen ([2]; preclinical xenograft models, ESR1 wild-type and mutated): greater tumor shrinkage
preclinical antitumor activity relative to fulvestrant and elacestrant ([2]; regardless of ESR1 mutation status): superior

From article PMC12210654, “Palazestrant, a novel oral Complete Estrogen Receptor Antagonist (CERAN) and Selective Estrogen Receptor Degrader (SERD), in patients with ER+/HER2− advanced or metastatic breast cancer: phase 1/2 study results” (Breast Cancer Research : BCR, 2025)
